{"source": "paper PMC10947113", "about": "“A Bivalent Activatable Fluorescent Probe for Screening and Intravital Imaging of Chemotherapy‐Induced Cancer Cell Death” (Angewandte Chemie (Weinheim an Der Bergstrasse, Germany), 2021)", "test_system": "MMTV-PyMT mammary gland tumours", "test": "Intravital imaging and ex vivo quantification of cisplatin-induced apoptosis", "type": "in vivo, mouse", "source_text": "Optical intravital imaging is increasingly used for the preclinical evaluation of anticancer drugs in vivo. Although imaging modalities like computed tomography, positron emission tomography and magnetic resonance imaging can help to visualise whole intact organs in a non‐invasive manner,[26] they lack the spatiotemporal resolution needed to study dynamic interactions between individual tumour and stromal cells. This feature is critical to understand the mechanism of action of anticancer drugs and how they can affect interactions between cancer cells and immune cells in the tumour microenvironment.[27] Intravital imaging heavily relies on the acquisition of fluorescence signals using multiphoton microscopy, which provides cellular resolution with deep tissue penetration (≈500 μm) and minimal photodamage.[28] […] First, we analysed the chemical stability of Apotracker Red for in vivo studies by incubating the probe in mouse serum. […] When primary tumours measured around 0.5–1 cm in diameter, we administered cisplatin intraperitoneally (10 mg kg^−1). […]\nwere centrifuged (300 g, 5 min, r.t.), washed once with PBS before addition of 0.05% Trypsin, 0.02% ethylenediaminetetraacetic acid (EDTA) in Hank’s balanced salt solution (HBSS) and incubation at 37°C for 5 min. […] Histograms and mean fluorescence intensities of apoptotic cells were measured on a 5L LSR flow cytometer under the following […]", "data": [{"smiles": "N.N.[Cl][Pt][Cl]", "note": "[cisplatin]", "values": [{"measurement": "Apotracker Red fluorescence in tumours of cisplatin-treated mice (cancer cell death)", "setting": "MMTV-PyMT;ACTB-ECFP mice, cisplatin 10 mg kg^-1 intraperitoneally, Apotracker Red 650 ng i.v. after 72 h, two-photon intravital imaging", "value": "strong red fluorescent signals indicating cancer cell death induced by the drug"}, {"measurement": "relative percentages of apoptotic cells in tumours, ex vivo quantification", "setting": "cisplatin 10 μg g^-1 i.p., day 3, at least 5 tumour areas per mouse, mean±SEM, one-way ANOVA p<0.05", "value": "significant differences"}]}]}
